The values that follow come from article PMC2810100 (Journal of medicinal chemistry, 2009).

In one test the test system is CpIMPDH. As to conditions: cited from earlier work.
The target of another test is T1, recombinant CpIMPDH (Cryptosporidium parvum, UniProt Q8T6T2).
T1 sequence (Q8T6T2 1-400): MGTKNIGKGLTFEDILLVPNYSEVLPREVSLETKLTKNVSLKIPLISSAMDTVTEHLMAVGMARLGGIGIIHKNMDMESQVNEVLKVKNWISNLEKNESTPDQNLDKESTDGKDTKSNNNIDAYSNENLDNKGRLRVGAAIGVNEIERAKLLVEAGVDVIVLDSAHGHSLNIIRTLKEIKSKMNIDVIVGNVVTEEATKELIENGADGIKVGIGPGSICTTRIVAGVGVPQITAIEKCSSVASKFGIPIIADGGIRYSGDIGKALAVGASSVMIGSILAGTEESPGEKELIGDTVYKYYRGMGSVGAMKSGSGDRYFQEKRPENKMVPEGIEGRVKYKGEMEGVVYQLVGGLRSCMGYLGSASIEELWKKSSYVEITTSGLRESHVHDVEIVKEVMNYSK
The format is biochemical. The settings on record: without BSA.

Turning to `CC(Oc1ccccc1)C(=O)Nc1ccc(Cl)cc1` (stereo not drawn) [Compound 5], in the test on CpIMPDH, the “Mode of inhibition with respect to 1 (IMP)” value is “uncompetitive inhibition” and the “Mode of inhibition with respect to NAD+” value is “noncompetitive (mixed) inhibition”.
Turning to `C[C@@H](Oc1ccnc2ccccc12)c1cn(-c2ccc(Cl)c(Cl)c2)nn1` [Compound 32, (R)-4-(1-(1-(3,4-dichlorophenyl)-1H-1,2,3-triazol-4-yl)ethoxy)quinoline], at recombinant CpIMPDH, the “Fold more potent than the (S)-enantiomer (33)” value is ~ 14 fold.
